# Patent US20200062696A1, “COMPOSITIONS AND METHODS FOR INHIBITING RETICULON 4” (THE REGENTS OF THE UNIVERSITY OF CALIFORNIA, priority 2017, published 2020)
# Tests used:
# [1] = tested on: SW620 colorectal cancer cells; test: Cell proliferation of SW620 cells (Hoescht staining); assay type: cell-based; settings: Homo sapiens, SW-620, cysteine-reactive fragment 50 μM, 48 h, vs DMSO, average of n = 3/group, read-out: SW620 proliferation Ave
# Protocol: (§1) Cell Culture. SW620 cells were purchased from ATCC. SW620 cells were grown in L-15 media with 10% fetal bovine serum (FBS) in ambient CO2. U2OS cells were grown in DMEM media supplemented with 10% FBS at 37° C. with 5% CO2.
# (§2) Survival and Proliferation Assays. Cells were plated the evening before the experiment, and allowed to adhere overnight. For serum-free cell survival assays, cells were plated in media not containing FBS. For cell proliferation assays, cells were plated in regular media. For the chemical genetics screen, cells were treated with either DMSO or the cysteine-reactive fragment for 48 h and cell viability was assessed by Hoescht stain using our previously described methods
# [2] = tested on: SW620 colorectal cancer cells; test: Serum-free cell survival of SW620 cells (Hoescht staining); assay type: cell-based; settings: Homo sapiens, SW-620, cysteine-reactive fragment 50 μM, 48 h, vs DMSO, average of n = 3/group, read-out: SW620 survival Ave
# Protocol: as §1, §2
Compound,activity at 50 µM [1] [%],viability at 50 µM [2] [%]
"C=CC(=O)NCc1ccccc1-c1ccccc1 [DKM 2-59, N-([1,1′-biphenyl]-2-ylmethyl)acrylamide]",74,66
"C=CC(=O)NC(c1ccccc1)(c1ccccc1)c1ccccc1 [DKM 3-41, N-tritylacrylamide]",93,55
"CCCN(C)C(=O)CCl [TRH 1-53, 2-Chloro-N-methyl-N-propylacetamide]",72,69
"C=CC(=O)NCCc1ccccc1 [DKM 2-42, N-phenethylacrylamide]",137,104
"C=CC(=O)Nc1ccc(C(F)(F)F)cc1 [TRH 1-50, N-(4-(trifluoromethyl)phenyl)acrylamide]",76,58
"C=CC(=O)Nc1ccc(-c2ccc(C#N)cc2)cc1 [DKM 2-98, N-(4′-cyano-[1,1′-biphenyl]-4-yl)acrylamide]",42,52
"C=CC(=O)NCCCOC [DKM 2-103, N-(3-methoxypropyl)acrylamide]",112,135
"C=CC(=O)N1CCC(c2ccccc2)CC1 [DKM 2-97, 1-(4-phenylpiperidin-1-yl)prop-2-en-1-one]",96,106
"C=CC(=O)NCc1ccc2c(c1)OCO2 [DKM 3-43, N-(benzo[d][1,3]dioxol-5-ylmethyl)acrylamide]",94,52
"C=CC(=O)NCCOc1ccccc1 [DKM 2-113, N-(2-phenoxyethyl)acrylamide]",147,75
"C=CC(=O)NC/C=C(\C)CCC=C(C)C [DKM 3-42, (E)-N-(3,7-dimethylocta-2,6-dien-1-yl)acrylamide]",112,104
"O=C(CCl)NCc1ccccc1Cl [DKM 2-94, 2-Chloro-N-(2-chlorobenzyl)acetamide]",32,43
"C=CC(=O)NCC1CCCCC1 [DKM 3-13, N-(cyclohexylmethyl)acrylamide]",94,77
"CC(CCc1ccccc1)NC(=O)CCl (centres unmarked) [DKM 2-76, 2-Chloro-N-(4-phenylbutan-2-yl)acetamide]",50,44
"C=CC(=O)Nc1cc(F)ccc1F [DKM 2-40, N-(2,5-difluorophenyl)acrylamide]",98,36
"C=CC(=O)Nc1ccc(Cl)cc1 [DKM 2-107, N-(4-chlorophenyl)acrylamide]",99,86
